From patent US7329681B2, “Inhibitors of IMPDH enzyme” (Vertex Pharmaceuticals Incorporated, priority 1996, dated 2008)
pKi: −log10 of the molar value.

target: IMPDH human type II (Homo sapiens, UniProt P12268); experiment: IMPDH activity inhibition assay (spectrophotometric, NADH formation at 340 nm); format: biochemical; details: not given
Method: We have measured the inhibition constants of each compound against IMPDH using an adaptation of the method first reported by […]. Moyed, and […]. Biol. Chem., 226, p. 339 (1957)]. We measured the inhibition constants of the compounds listed in Table III utilizing the following protocol: IMP dehydrogenase activity was assayed following an adaptation of the method first reported by […]. Moyed, H. S. and […]. Biol. Chem. 226, 339]. Enzyme activity was measured spectrophotometrically, by monitoring the increase in absorbance at 340 nm due to the formation of NADH (ε340 is 6220 M^-1 cm^-1). The reaction mixture contained 0.1 M Tris pH 8.0, 0.1 M KCl, 3 mM EDTA, 2 mM DTT, […] and enzyme (IMPDH human type II) at a concentration of 15 to 50 nM. This solution is incubated at 37° C. for 10 minutes. The reaction is started by adding NAD to a final concentration of 0.1 M and the initial rate is measured by following the linear increase in absorbance at 340 nm for 10 minutes. For reading in a standard spectrophotometer (path length 1 cm) the final volume in the cuvette is 1.0 ml. The assay has also been adapted to a 96 well microtiter plate format; in this case the concentrations of all the reagents remain the same and the final volume is decreased to 200 μl. For the analysis of inhibitors, the compound in question is dissolved in DMSO to a final concentration of 20 mM and added to the initial assay mixture for preincubation with the enzyme at a final volume of 2-5% (v/v). The reaction is started by the addition of NAD, and the initial rates measured as above. […] The designation “ND” is used where a given compound was not tested.

| SMILES | pKi |
| --- | --- |
| COC(=O)NCc1cccc(NC(=O)Nc2ccc(-c3cnco3)c(OC)c2)c1 [Compound 118] | 5.00 to 6.00 |
| COc1cc(NC(=O)Nc2cccc(CNC(=O)Oc3ccccc3)c2)ccc1-c1cnco1 [Compound 119] | 7.30 to 11.00 |
| COC(=O)c1ccc(OC(=O)NCc2cccc(NC(=O)Nc3ccc(-c4cnco4)c(OC)c3)c2)cc1 [Compound 123] | 7.30 to 11.00 |
| C=CCOC(=O)NCc1cccc(NC(=O)Nc2ccc(-c3cnco3)c(OC)c2)c1 [Compound 125] | 7.30 to 11.00 |
| COc1cc(NC(=O)Nc2cccc(CNC(=O)Oc3ccc(NC(C)=O)cc3)c2)ccc1-c1cnco1 [Compound 127] | 7.30 to 11.00 |
| COc1cc(NC(=O)Nc2cccc(CNC(=O)OCCO)c2)ccc1-c1cnco1 [Compound 134] | 7.30 to 11.00 |
| COc1cc(NC(=O)Nc2cccc(CNC(=O)Oc3cccnc3)c2)ccc1-c1cnco1 [Compound 137] | 6.00 to 7.29 |

same assay, conditions: IMPDH human type II, 15 to 50 nM enzyme, 37° C., tight-binding fit (Henderson); read-out: Ki

| SMILES | pKi |
| --- | --- |
| COc1cc(NC(=S)Nc2cccc(C)c2)ccc1-c1cnco1 [Compound 115] | 6.00 to 7.29 |
| COc1cc(NC(=O)Nc2cccc(CN(C)C(=O)OC(C)(C)C)c2)ccc1-c1cnco1 [Compound 117] | 6.00 to 7.29 |
| COc1cc(NC(=O)Nc2cccc(CNC(=O)OC3COCOC3)c2)ccc1-c1cnco1 [Compound 126] | 7.30 to 11.00 |
| COc1cc(NC(=O)Nc2cccc(CNC(=O)OC3CCOCC3)c2)ccc1-c1cnco1 [Compound 131] | 7.30 to 11.00 |
| COc1cc(NC(=O)Nc2cccc(CNC(=O)OC3CCCCC3)c2)ccc1-c1cnco1 [Compound 132] | 7.30 to 11.00 |
| COc1cc(NC(=O)Nc2cccc(CNC(=O)OCCCNC(=O)OC(C)(C)C)c2)ccc1-c1cnco1 [Compound 139] | 6.00 to 7.29 |
| COc1cc(NC(=O)Nc2cccc(CNC(=O)OC3CCCN(C(=O)OC(C)(C)C)C3)c2)ccc1-c1cnco1 (stereo not shown) [Compound 143] | 6.00 to 7.29 |
| COc1cc(NC(=O)Nc2cccc(CNC(=O)OC3C(=O)OCC3(C)C)c2)ccc1-c1cnco1 (stereo not shown) [Compound 144] | 6.00 to 7.29 |
| COc1cc(NC(=O)Nc2cccc(CNC(=O)OCC3CCOC(C)(C)O3)c2)ccc1-c1cnco1 (stereo not shown) [Compound 146] | 7.30 to 11.00 |
| COc1cc(NC(=O)Nc2cccc(CNC(=O)OCC3CCN(C(=O)OC(C)(C)C)CC3)c2)ccc1-c1cnco1 [Compound 148] | 7.30 to 11.00 |

Other lines, results leading:

| pKi | SMILES |
| --- | --- |
| 7.30 to 11.00 | COc1cc(NC(=O)Nc2cccc(CNC(=O)O[C@H]3CCOC3)c2)ccc1-c1cnco1 [Compound 120] |
| 7.30 to 11.00 | COc1cc(NC(=O)Nc2cccc(CNC(=O)OCc3ccccn3)c2)ccc1-c1cnco1 [Compound 121] |
| 7.30 to 11.00 | COc1cc(NC(=O)Nc2cccc(CNC(=O)OC[C@@H]3CNC(=O)O3)c2)ccc1-c1cnco1 [Compound 122] |
| 7.30 to 11.00 | COc1cc(NC(=O)Nc2cccc(CNC(=O)OCC(C)C)c2)ccc1-c1cnco1 [Compound 124] |
| 7.30 to 11.00 | COc1cc(NC(=O)Nc2cccc(CNC(=O)OCc3ccco3)c2)ccc1-c1cnco1 [Compound 128] |
| 7.30 to 11.00 | COc1cc(NC(=O)Nc2cccc(CNC(=O)OCc3cccs3)c2)ccc1-c1cnco1 [Compound 129] |
| 7.30 to 11.00 | COCCOC(=O)NCc1cccc(NC(=O)Nc2ccc(-c3cnco3)c(OC)c2)c1 [Compound 130] |
| 7.30 to 11.00 | COc1cc(NC(=O)Nc2cccc(CNC(=O)OC3CCCC3)c2)ccc1-c1cnco1 [Compound 133] |
| 7.30 to 11.00 | COc1cc(NC(=O)Nc2cccc(CNC(=O)OCC3CCCCC3)c2)ccc1-c1cnco1 [Compound 135] |
| 7.30 to 11.00 | COc1cc(NC(=O)Nc2cccc(CNC(=O)OC3CCOC3)c2)ccc1-c1cnco1 (stereo not shown) [Compound 136] |
| 7.30 to 11.00 | COc1cc(NC(=O)Nc2cccc(CNC(=O)OCc3ccccc3)c2)ccc1-c1cnco1 [Compound 138] |
| 7.30 to 11.00 | COc1cc(NC(=O)Nc2cccc(CNC(=O)OCCCCO)c2)ccc1-c1cnco1 [Compound 140] |
| 7.30 to 11.00 | COc1cc(NC(=O)Nc2cccc(CNC(=O)OCCCCCO)c2)ccc1-c1cnco1 [Compound 141] |
| 7.30 to 11.00 | COc1cc(NC(=O)Nc2cccc(CNC(=O)OCCCSC)c2)ccc1-c1cnco1 [Compound 145] |
